Test results reported in US20150289512A1, “METHOD FOR PROMOTING PLANT GROWTH” (SUMITOMO CHEMICAL COMPANY, LIMITED, priority 2012, published 2015).

Columns and labels:
Assay type in all cases: in vivo
[1] = test system: Rice (variety: Nipponbare); experiment: Test Example 1: promotion of root growth by hydroponics of rice, 10 ppm; conditions: Oryza sativa, hydroponic solution containing the test compound at 10 ppm, average of 4 or 5 individuals, read-out: Relative value of length of seminal root (%-untreated control plot)
Procedure, shortened: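 Surface-sterilised seeds germinated 3 days in the dark at 28° C in hydroponic solution with compound at 10 ppm, then grown 3 days hydroponically with compound at 10 ppm (26° C, 4,000 lux, 16 h day, 50% humidity). Seminal root length measured by image analysis, averaged over 4 or 5 plants per plot.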

Nicotiana benthamiana [2] = experiment: Test Example 5: growth promotion under low-temperature stress by hydroponics of Nicotiana benthamiana, 1 ppm; conditions: 1 ppm in medium, low-temperature stress 7 days at 1.5±1.0° C., green leaf area 3 days later, equation (1)
Procedure, shortened: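 Seeds were grown in half-strength Murashige–Skoog medium (pH 5.8) containing 1 ppm compound for 7 days at 22 °C, then chilled 7 days at 1.5±1.0 °C and recovered 3 days at 22 °C. Green leaf area was imaged. Relative leaf area = 100×(treated − untreated)/(unstressed untreated − stressed untreated).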

[3] = test system: Corn seeds (variety: Pioneer 120 31P41); experiment: Test Example 14: growth promotion under low-temperature stress by soil drench treatment of corn; conditions: Zea mays, 120 h, soil drench 20 ml, low-temperature stress 5 days at 2.5° C., health score 0-5, average of 4 individuals, read-out: Relative value of score (%- untreated control plot); for change in vivo at 0.3 ppm: concentration tested 0.3 ppm; for change in vivo at 1 ppm: concentration tested 1 ppm; for change in vivo at 10 ppm: concentration tested 10 ppm
Protocol: Test for Evaluating Growth Promotion Under Low-Temperature Stress by Soil Drench Treatment of Corn
Corn seeds (variety: Pioneer 120 31P41) were seeded in a culture soil (Aisai) in a plastic pot (φ55 mm×height of 58 mm), and cultivated for 7 days at 20-25° C., an illuminance of about 5,000 lux, and a day length of 16 hours.
A DMSO solution, which contained one of the compounds 1 to 9, 16, 17, 20, 23, 24, 28 to 32, 34, 45, 48, 50, 82 and 85 of the present invention at a concentration of 1,000-fold concentration of each test concentration, was prepared, and then diluted with distilled water to obtain each test solution. After that, 20 ml of the obtained test solution was used to perform soil drench treatment on the foot of the test plants. The test plants were cultivated for 2 days under the conditions of a temperature of 27° C., a humidity of 40-80%, an illuminance of about 5,000 lux, and a day length of 16 hours. This was used as a test plot treated with the compound. A plot having undergone the soil drench treatment with 20 ml of a 0.1% DMSO aqueous solution instead of the above DMSO solution containing the compound was used as an untreated control plot.
The plants having undergone the soil drench treatment were cultivated for 5 days under the conditions of a temperature of 2.5° C., a humidity of 40-80%, an illuminance of about 5,000 lux, and a day length of 16 hours, thereby exposing to low-temperature stress. After the exposure to the low-temperature stress, the plants were cultivated for 4 days under the conditions of a temperature of 27° C., a humidity of 40-80%, an illuminance of about 5,000 lux, and a day length of 16 hours.
After the cultivation, the health of each plant was scored according to the following evaluation index.
5: 4 or more leaves in which ⅔ or more of the area was healthy
4: 3 leaves in which ⅔ or more of the area was healthy
3: 2 leaves in which ⅔ or more of the area was healthy
2: 1 leaf in which ⅔ or more of the area was healthy
1: No leaf in which ⅔ or more of the area was healthy
An average of the scores of the health of 4 individuals was determined.

[4] = test system: Rice (variety: Nipponbare); experiment: Test Example 3: promotion of root growth by hydroponics of rice, 0.1 ppm; conditions: Oryza sativa, hydroponic solution containing the test compound at 0.1 ppm, average of 4 or 5 individuals, read-out: Relative value of length of seminal root (%-untreated control plot)
Procedure, shortened: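 Surface-sterilised Nipponbare seeds were germinated 3 days in the dark at 28 °C in ¼-strength Hoagland solution containing 0.1 ppm compound; DMSO-only solution served as control. Seedlings were then grown 3 days hydroponically at 26 °C, 4,000 lux, 16 h day. Seminal root length was measured and averaged over 4–5 plants.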

Nicotiana benthamiana [5] = experiment: Test Example 6: growth promotion under low-temperature stress by hydroponics of Nicotiana benthamiana, 0.1 ppm; conditions: 0.1 ppm in medium, low-temperature stress 7 days at 1.5±1.0° C., green leaf area 3 days later, equation (1)
Protocol: Test for Evaluating Growth Promotion Under Low-Temperature Stress by Hydroponics of Nicotiana benthamiana
A DMSO solution, which contained one of the compounds 3, 7, 14, 16, 36, 39, 43, 45, 50, 52, 53, 54, 56, 57, 62, 63, 64, 65, 68, 69, 70, 71, 73, 74, 76, 77, 79, 80, 81, 84, 85, 86 and 87 of the present invention at a concentration of 100 ppm, was prepared. The DMSO solution of the compound of the present invention was added at a volume ratio of 1/1,000 to the Murashige•Scoog medium of a ½-fold concentration for the Murashige•Scoog medium (a medium containing 2.3 g of mixed salts (manufactured by Wako Pure Chemical Industries, Ltd.), 200 mg of Myo-inositol (manufactured by Sigma-Aldrich Co. LLC.), 2 mg of nicotinic acid (manufactured by Wako Pure Chemical Industries, Ltd.), 2 mg of pyridoxine hydrochloride (manufactured by Wako Pure Chemical Industries, Ltd.), 20 mg of thiamine hydrochloride (manufactured by Wako Pure Chemical Industries, Ltd.), 20 g of sucrose (manufactured by Wako Pure Chemical Industries, Ltd.), and 1 g of MES (manufactured by DOJINDO LABORATORIES) per 1 L of water and having pH adjusted to 5.8), thereby preparing a medium containing the compound of the present invention at a concentration of 0.1 ppm.
Seeds of Nicotiana benthamiana were seeded in the 5 μL of the medium and cultured overnight at 22° C. Thereafter, 45 μL of the medium containing the compound of the present invention at a concentration of 0.1 ppm was added thereto, and the seeds are cultivated for 7 days at 22° C., an illuminance of 4,000 lux, and a day length of 16 hours, and the nursery plants raised from the Nicotiana benthamiana were treated with the compound. Moreover, instead of the above medium a test plot, which was obtained by performing the same treatment by using a medium prepared by adding DMSO to the Murashige•Scoog medium of ½-fold concentration at a volume ratio of 1/1,000, was used as a control plot not treated with the compound.
The nursery plants of the Nicotiana benthamiana treated with the compound were subjected to low-temperature treatment by being cultivated for 7 days at 1.5±1.0° C., an illuminance of 2,000 lux, and a day length of 16 hours.
The nursery plants of the Nicotiana benthamiana having undergone the low-temperature stress treatment were cultivated for 3 days at 22° C., an illuminance of 4,000 lux, and a day length of 16 hours. Thereafter, the area of green leaf was quantified by Scanalyzer HTS (manufactured by LemnaTec GmbH). Moreover, the value of the control plot not treated with the compound that had not yet been subjected to the low-temperature stress treatment was measured in the same manner. A value of a relative leaf area was calculated based on the following equation (1), and if the value of a relative leaf area was 5 or greater, the compound was evaluated to have a mitigating effect. As a result of the evaluation, it was confirmed that when the plant was treated with one of the compounds 3, 7, 14, 16, 36, 39, 43, 45, 50, 52, 53, 54, 56, 57, 62, 63, 64, 65, 68, 69, 70, 71, 73, 74, 76, 77, 79, 80, 81, 84, 85, 86 and 87 of the present invention at 0.1 ppm, the value of a relative leaf area was 5 or greater, compared to the area of green leaf of the control plot not treated with compound. Accordingly, it was confirmed that the treatment using the compound of the present invention brings about a growth promotion effect.
Relative leaf area=100*(a green area of a plot treated with the compound of the present invention−a green area of a control plot not treated with the compound of the present invention)/(a green area of a control plot not treated with the compound of the present invention that has not yet been subjected to low-temperature stress treatment−green area of a control plot not treated with the compound of the present invention) Equation (1): […]

Row | Compound | change in vivo at 10 ppm [1] | relative leaf area (% of untreated control) at 1 ppm (Nicotiana benthamiana [2]) | change in vivo at 0.3 ppm [3] | change in vivo at 0.1 ppm [4] | relative leaf area (% of untreated control) at 0.1 ppm (Nicotiana benthamiana [5]) | change in vivo at 1 ppm [3] | change in vivo at 10 ppm [3]
1 | COc1ccc(NC(=O)c2cc3cc(C(F)(F)F)ccc3o2)c(OC)c1 [Compound 5, N-(2,4-dimethoxyphenyl)-5-trifluoromethylbenzofuran-2-carboxamide] | > 5% | ≥ 5% | > 5% |  |  |  | 
2 | COC(=O)c1nc2ccccc2o1 [Compound 16, methyl benzoxazole-2-carboxylate] |  |  |  | > 5% | ≥ 5% | > 5% | 
3 | O=C(O)c1cc2cc(C(F)(F)F)ccc2o1 [Compound 2, 5-trifluoromethylbenzofuran-2-carboxylic acid] |  | ≥ 5% |  | > 5% |  |  | > 5%
4 | O=C(O)c1nc2cc(C(F)(F)F)ccc2[nH]1 [Compound 20, 5-(trifluoromethyl)-benzimidazole-2-carboxylic acid] |  | ≥ 5% | > 5% | > 5% |  |  | 
5 | CCOC(=O)c1cc2cc(C(F)(F)F)ccc2o1 [Compound 4, ethyl 5-trifluorometethylbenzofuran-2-carboxylate] | > 5% | ≥ 5% |  |  |  |  | > 5%
6 | O=C(O)c1cc2cc(C(F)(F)F)ccc2[nH]1 [Compound 7, 5-trifluoromethylindole-2-carboxylic acid] |  |  |  | > 5% | ≥ 5% | > 5% | 
